In article PMC9855432, “Novel Set of Diarylmethanes to Target Colorectal Cancer: Synthesis, In Vitro and In Silico Studies” (Biomolecules, 2022):

Columns and labels:
[1] = tested on: human CRC HT-29 cells; test: MTT cell viability / IC50 on HT-29 cells; format: cell-based; conditions: for IC50: MTT assay, 1 to 50 µM, mean ± SEM of at least three experiments; for viability at 50 µM: HT-29, MTT screening
Description: (§1) Cells were grown in DMEM medium for HT-29 cells and RPMI 1640 medium for HCT116 cells, supplemented with 10% FBS, 1% L-glutamine and 100 U/mL penicillin and 100 μg/mL streptomycin. Cultures were maintained in a humidified atmosphere containing 5% CO2 at 37 °C. Stock solutions of each compound were used at 10^−2 M in DMSO and then diluted in culture medium to obtain the appropriate final concentrations. […] L929 cell line is a non-cancer cell line derived from L-strain (L cells) and has been grown in the Peptinov laboratory for years. L929 cells are murine adherent fibroblasts from subcutaneous connective tissue (areolar and adipose tissues). Cells were grown in DMEM medium supplemented with 10% FBS, 1% L-glutamine and 100 U/mL penicillin and 100 µg/mL streptomycin and maintained in a humidified incubator at 37 °C, 5% CO2. When confluence is at 80%, cells are trypsinyzed for 3 min and diluted in fresh medium. Each batch of cells is kept for 15 passages before being discarded and a new batch thawed.
(§2) All compounds were tested on the metabolic activity of the cells using the MTT colorimetric assay. Briefly, cells were seeded in 96-well microplates at 8 × 10^3 cells/well for human CRC HT-29 cells and 5 × 10^3 cells/well for human CRC HCT116 cells and grown for 24 h in appropriate culture medium prior to exposure or not to compounds (6–27) with concentration ranges from 1 to 50 µM. After 48 h of treatment, MTT (5 g/L in Phosphate-buffered saline (PBS)) was added and incubated for another 3 h. The MTT was then removed from the wells and 100 µL/well of DMSO were added to dissolve formazan. The optical density was detected with a microplate reader (Thermoscientific, Multiskan FC) at 550 nm and cell viability was expressed as a percentage of each treatment condition compared to control cells. IC50 values were calculated for all compounds from the dose–response curve.

[2] = tested on: P-Akt; test: Western blot of P-Akt in HCT116 cells; format: cell-based, human; conditions: HCT116, treated at IC50, 6 and 12 h
Description: (§3) Human CRC HT-29 and HCT116 cells were treated or not with the determined IC50 values of compounds (12a, 10a, 10b) for indicated times (6, 12, 24 and 48h) and then harvested with trypsin. For total protein extraction, collected samples of each condition were washed with PBS. Then, the total cell pool was centrifuged at 200× g for 5 min at 4 °C and homogenized in RIPA lysis buffer (50 mM HEPES, pH 7.5, 150 mM NaCl, 1% sodium deoxycholate, 1% NP-40, 0.1% Sodium Dodecyl Sulfate (SDS), […] of aprotinin) containing protease inhibitors according to the manufacturer’s instructions as previously described. Proteins (60 µg) were separated on 12.5% SDS-PAGE gels and transferred to polyvinylidene difluoride (PVDF) membranes. Membranes were probed with respective human antibodies against caspase-3, cleaved caspase-3, PARP and Akt, ERK, p38 MAP Kinases and its phosphorylated forms according to the manufacturer’s instructions. After incubation with appropriate secondary antibodies, blots were developed using the «Immobilon Western » substrate following the manufacturer’s protocol and G:BOX system (Syngene, Ozyme). […]
(§4) P-Akt, Akt, P-ERK, ERK, P-p38, p-38 sourced from human CRC HCT116 cells line were investigated. […] Total lysates were collected and expression of Akt, ERK and p38 MAPK proteins and their phosphorylated forms were determined by Western blot analysis.

[3] = tested on: P-ERK; test: Western blot of P-ERK in HCT116 cells; format: cell-based, human; conditions: HCT116, treated at IC50, 6 and 12 h
Description: as §3, §4

[4] = tested on: human CRC HT-29 cells; test: DNA fragmentation, Cell Death Detection ELISA, HT-29; format: cell-based; conditions: treated at IC50, n-fold compared to control
Description: (§5) Human CRC HT-29 and HCT116 cells were treated or not with the determined IC50 values of compounds (12a, 10a, 10b) for 24 and 48 h and then harvested with trypsin. Histone release from the nucleus during apoptosis was analyzed using the Cell Death Detection ELISA^PLUS as previously described. Cytosol extracts from 10^5 cells of each condition were obtained and DNA fragmentation was measured according to the manufacturer’s protocol. Results were reported as n-fold compared to control cells.

[5] = tested on: PARP; test: Western blot of cleaved PARP in HT-29 cells; format: cell-based, human
Description: (§6) Human CRC HT-29 and HCT116 cells were treated or not with the determined IC50 values of compounds (12a, 10a, 10b) for indicated times (6, 12, 24 and 48h) and then harvested with trypsin. For total protein extraction, collected samples of each condition were washed with PBS. Then, the total cell pool was centrifuged at 200× g for 5 min at 4 °C and homogenized in RIPA lysis buffer (50 mM HEPES, pH 7.5, 150 mM NaCl, 1% sodium deoxycholate, 1% NP-40, 0.1% Sodium Dodecyl Sulfate (SDS), […] of aprotinin) containing protease inhibitors according to the manufacturer’s instructions as previously described. Proteins (60 µg) were separated on 12.5% SDS-PAGE gels and transferred to polyvinylidene difluoride (PVDF) membranes. Membranes were probed with respective human antibodies against caspase-3, cleaved caspase-3, PARP and Akt, ERK, p38 MAP Kinases and its phosphorylated forms according to the manufacturer’s instructions. After incubation with appropriate secondary antibodies, blots were developed using the «Immobilon Western » substrate following the manufacturer’s protocol and G:BOX system (Syngene, Ozyme). Membranes were then reblotted with human anti-β-actin used as a loading control.
Cells were treated or not for 24 and 48 h, with IC50 values of compounds 10a, 10b and 12a, for human CRC HT-29 cells and compounds 10a and 12a for human CRC HCT116 cells. Total lysates were collected, and expression of apoptosis-related proteins was determined by Western blot analysis.

[6] = tested on: human CRC HCT116 cells; test: MTT cell viability / IC50 on HCT116 cells; format: cell-based; conditions: for IC50: MTT assay, 1 to 50 µM, mean ± SEM of at least three experiments; for viability at 50 µM: HCT-116, MTT screening
Description: as §1, §2

[7] = tested on: P-p38; test: Western blot of P-p38 in HCT116 cells; format: cell-based, human; conditions: HCT116, treated at IC50, 6 and 12 h
Description: as §3, §4

[8] = tested on: human CRC HCT116 cells; test: DNA fragmentation, Cell Death Detection ELISA, HCT116; format: cell-based; conditions: treated at IC50, n-fold compared to control
Description: as §5

[9] = tested on: caspase-3; test: Western blot of cleaved caspase-3 in HCT116 cells; format: cell-based, human; conditions: HCT116, treated at IC50, 24 h (enhanced after 48 h)
Description: as §6
(§7) Cells were treated or not for 24 and 48 h, with IC50 values of compounds 10a, 10b and 12a, for human CRC HT-29 cells and compounds 10a and 12a for human CRC HCT116 cells. […]

[10] = tested on: PARP; test: Western blot of cleaved PARP in HCT116 cells; format: cell-based, human; conditions: HCT116, treated at IC50, 24 and 48 h
Description: as §6, §7

[11] = tested on: caspase-3; test: Western blot of cleaved caspase-3 in HT-29 cells; format: cell-based, human; conditions: HT-29, treated at IC50, within 48 h
Description: as §6, §7

IC50 ([1]; Homo sapiens, HT-29, 48 h) | IC50 ([1]; 48 h) | IC50 ([6]; Homo sapiens, HCT-116, 48 h) | IC50 ([6]; 48 h) | Structure (SMILES) | viability at 50 µM ([1]; Homo sapiens, 48 h) | P-Akt expression [2] | ERK phosphorylation [3] | HT-29 DNA Fragmentation (Fold) ([4]; 24 h) | HT-29 DNA Fragmentation (Fold) ([4]; 48 h) | cleaved PARP expression ([5]; HT-29, treated at IC50, 24 h) | cleaved PARP expression ([5]; HT-29, treated at IC50, 48 h) | viability at 50 µM ([6]; Homo sapiens, 48 h) | p38 activation [7] | HCT116 DNA Fragmentation (Fold) ([8]; 24 h) | HCT116 DNA Fragmentation (Fold) ([8]; 48 h) | cleaved caspase-3 expression [9] | cleaved PARP expression [10] | cleaved caspase-3 expression [11]
< 30 µM | 25.7 ± 1.21 µM | < 35 µM | 33.6 ± 0.71 µM | COc1ccc(C(=Cc2ccc(C(C)(C)C)cc2)c2ccccn2)cc1 [Compound 10a, 2-(2-(4-(tert-butyl)phenyl)-1-(4-methoxyphenyl)vinyl)pyridine] | < 50% | inhibition is also observed | drastically decreased | 1.12 Fold | 0.83 Fold | never been expressed | never been expressed | < 50% | no p38 activation was observed | 0.83 Fold | 1.89 Fold | – | – | –
– | 23 ± 1.27 µM | < 35 µM | 31.4 ± 1.74 µM | COc1ccc(C(=Cc2ccc(C(F)(F)F)cc2)c2ccccn2)cc1 [Compound 12a, 2-(1-(4-methoxyphenyl)-2-(4-(trifluoromethyl)phenyl)vinyl)pyridine] | < 50% | downregulated | drastically decreased | 2.90 Fold | 3.25 Fold | slightly enhanced | overexpressed | < 50% | no p38 activation was observed | 1.46 Fold | 6.97 Fold | cleavage of caspase-3 | significant increase of cleaved PARP | high expression of the cleaved form of caspase-3
